Assay results taken from the supplement of paper PMC10307832.

Experiments:
Assay in all cases: relative viability (nuclei count vs DMSO), 5 days (fraction); higher = more cells survive
LCLC-97TM1 = tested on: LCLC-97TM1
In short: (§1)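 One day after seeding in 1536-well plates, lung cancer cell lines were dosed by pin tool. Dosing was either single-drug or a fixed anchor-drug dose plus five library-drug doses (not always all listed) in √10 steps. After 5 days, nuclei were stained in one fix-and-stain step and counted on 4× images, and relative viability is the nuclei count of treated wells over that of vehicle wells, given as the median of duplicate plates.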

NCI-H1793 = tested on: NCI-H1793
In short: as §1

SW 1573 = tested on: SW 1573
In short: as §1

PC-3 [JPC-3] = tested on: PC-3 [JPC-3]
In short: as §1

NCI-H2347 = tested on: NCI-H2347
In short: as §1

NCI-H520 = tested on: NCI-H520
In short: as §1

NCI-H1650 = tested on: NCI-H1650
In short: as §1

NCI-H2228 = tested on: NCI-H2228
In short: as §1

NCI-H1915 = tested on: NCI-H1915
In short: as §1

RERF-LC-KJ = tested on: RERF-LC-KJ
In short: as §1

LOU-NH91 = tested on: LOU-NH91
In short: as §1

BEN = tested on: BEN
In short: as §1

O=c1[nH]c2ccccc2n1C1CCN(CCCC(c2ccc(F)cc2)c2ccc(F)cc2)CC1 [Pimozide] + CC(=O)Nc1cccc(-n2c(=O)n(C3CC3)c(=O)c3c(Nc4ccc(I)cc4F)n(C)c(=O)c(C)c32)c1 [Trametinib] (partner 0.02 µM) was tested, and the relative viability (LCLC-97TM1; first compound 0.08 µM) was 0.191, the relative viability (LCLC-97TM1; first compound 0.253 µM) was 0.189 and the relative viability (LCLC-97TM1; first compound 0.8 µM) was 0.166. The relative viability (LCLC-97TM1; first compound 2.53 µM) was 0.185, the relative viability (LCLC-97TM1; first compound 8 µM) was 0.207 and the relative viability (NCI-H1793; first compound 0.08 µM) was 0.478. The relative viability (NCI-H1793; first compound 0.253 µM) was 0.391, the relative viability (NCI-H1793; first compound 0.8 µM) was 0.391 and the relative viability (NCI-H1793; first compound 2.53 µM) was 0.44. For the same molecule, the relative viability (NCI-H1793; first compound 8 µM) was 0.515, the relative viability (SW 1573; first compound 0.08 µM) was 0.645 and the relative viability (SW 1573; first compound 0.253 µM) was 0.448. For the same molecule, the relative viability (SW 1573; first compound 0.8 µM) was 0.394, the relative viability (SW 1573; first compound 2.53 µM) was 0.308 and the relative viability (SW 1573; first compound 8 µM) was 0.344. The relative viability (PC-3 [JPC-3]; first compound 0.253 µM) was 0.683, the relative viability (PC-3 [JPC-3]; first compound 0.8 µM) was 0.651 and the relative viability (PC-3 [JPC-3]; first compound 2.53 µM) was 0.656. The relative viability (PC-3 [JPC-3]; first compound 8 µM) was 0.607, the relative viability (NCI-H2347; first compound 0.08 µM) was 0.288 and the relative viability (NCI-H2347; first compound 0.253 µM) was 0.307. The relative viability (NCI-H2347; first compound 0.8 µM) was 0.287, the relative viability (NCI-H2347; first compound 2.53 µM) was 0.278 and the relative viability (NCI-H2347; first compound 8 µM) was 0.285. The relative viability (NCI-H520; first compound 0.08 µM) was 0.632, the relative viability (NCI-H520; first compound 0.253 µM) was 0.68 and the relative viability (NCI-H520; first compound 0.8 µM) was 0.627. For the same molecule, the relative viability (NCI-H520; first compound 2.53 µM) was 0.601, the relative viability (NCI-H520; first compound 8 µM) was 0.54 and the relative viability (NCI-H1650; first compound 0.08 µM) was 0.625. For the same molecule, the relative viability (NCI-H1650; first compound 0.253 µM) was 0.591, the relative viability (NCI-H1650; first compound 0.8 µM) was 0.516 and the relative viability (NCI-H1650; first compound 2.53 µM) was 0.571. It also gave a relative viability (NCI-H1650; first compound 8 µM) of 0.718, a relative viability (NCI-H2228; first compound 0.08 µM) of 0.514 and a relative viability (NCI-H2228; first compound 0.253 µM) of 0.475. The relative viability (NCI-H2228; first compound 0.8 µM) was 0.522, the relative viability (NCI-H2228; first compound 2.53 µM) was 0.418 and the relative viability (NCI-H2228; first compound 8 µM) was 0.167. The relative viability (NCI-H1915; first compound 0.08 µM) was 0.293, the relative viability (NCI-H1915; first compound 0.253 µM) was 0.296 and the relative viability (NCI-H1915; first compound 2.53 µM) was 0.296. It also gave a relative viability (NCI-H1915; first compound 8 µM) of 0.287, a relative viability (RERF-LC-KJ; first compound 0.08 µM) of 0.851 and a relative viability (RERF-LC-KJ; first compound 0.253 µM) of 0.778. The relative viability (RERF-LC-KJ; first compound 0.8 µM) was 0.742, the relative viability (RERF-LC-KJ; first compound 2.53 µM) was 0.764 and the relative viability (RERF-LC-KJ; first compound 8 µM) was 0.609. For the same molecule, the relative viability (LOU-NH91; first compound 0.08 µM) was 0.649, the relative viability (LOU-NH91; first compound 0.253 µM) was 0.822 and the relative viability (LOU-NH91; first compound 0.8 µM) was 0.755. For the same molecule, the relative viability (LOU-NH91; first compound 2.53 µM) was 0.841, the relative viability (LOU-NH91; first compound 8 µM) was 0.819 and the relative viability (BEN; first compound 0.08 µM) was 1.17. For the same molecule, the relative viability (BEN; first compound 0.253 µM) was 1.16.
